The values below come from patent publication US12590106B2, “Spiromacrocyclic orexin 2 receptor agonists” (H. Lundbeck A/S, priority 2023, dated 2026).

The target of the test is T1, human Ox2R (Homo sapiens, UniProt O43614).
T1 construct: The gene encoding hOx2R was subcloned into the expression plasmid pcDNA5/FRT/TO; expressed in transfected cells; host or cells: CHO Flp-In cells (pcDNA5/FRT/TO with pOG44 Flp recombinase vector, hygromycin B selection)
T1 sequence (O43614 1-444): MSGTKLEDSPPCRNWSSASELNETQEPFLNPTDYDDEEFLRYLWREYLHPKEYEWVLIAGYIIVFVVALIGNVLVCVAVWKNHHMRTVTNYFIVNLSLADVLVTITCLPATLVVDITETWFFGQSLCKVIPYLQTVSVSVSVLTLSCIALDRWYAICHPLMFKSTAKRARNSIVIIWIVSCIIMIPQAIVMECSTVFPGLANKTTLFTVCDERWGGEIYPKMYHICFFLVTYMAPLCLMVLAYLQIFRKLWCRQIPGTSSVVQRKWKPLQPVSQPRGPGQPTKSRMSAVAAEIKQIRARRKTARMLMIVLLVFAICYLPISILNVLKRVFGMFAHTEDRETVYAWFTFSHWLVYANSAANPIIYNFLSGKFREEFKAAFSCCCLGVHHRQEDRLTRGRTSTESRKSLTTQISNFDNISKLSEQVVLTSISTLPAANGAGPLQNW
In words: Measurement of OX2R agonist activity (cell-based calcium release assay). The conditions noted are these: hOx2R-CHO Flp-In cells, n≥2 tests; for pEC50: intracellular calcium, read-out: EC50; for Emax: read-out: Emax (%). An excerpt:
Measurement of OX2R Agonist Activity
The Ox2R has a broad signaling profile and couple to a range of different Gα-proteins. The cell-based calcium release assay is primarily assessing signaling through the Gαq signaling pathway, which promotes calcium mobilization via inositol triphosphate production upon activation of Ox2R.
A CHO Flp-In cell-line stably expressing the human Ox2R (hOx2R-CHO Flp-In) was established as follows: The gene encoding hOx2R was subcloned into the expression plasmid pcDNA5/FRT/TO and then transfected into CHO Flp-In cells together with the Flp recombinase vector, pOG44. Cells were cultured in growth medium: Ham's F12 (Gibco), 10% fetal bovine serum (Gibco) and 100 U/mL penicillin-streptomycin (Gibco) supplemented with hygromycin B (Thermo Fisher Scientific) as selection marker at 37° C. in the presence of 5% CO2.
To prepare the hOx2R-CHO FlpIn cells for calcium release assay, the cells were suspended in growth medium and seeded in black, clear-bottomed 384-well plates (Corning) at 10,000 cells/well. The plated cells were grown overnight at 37° C. and 5% CO2. The following day, the media was removed, and the cells were incubated with assay buffer (HBSS with 20 mM HEPES, pH 7.4) containing 2.5 mM probenecid (Thermo Fisher Scientific), 10 mM CaCl2, 0.1% pluronic F68 (Gibco) and 1× calcium-4 dye (Molecular Devices) for 1 h at 37° C. and 5% CO2. After incubation, cells were allowed to equilibrate at room temperature for 15 minutes and then loaded into FDSS7000Ex system (Hamamatsu Photonics) together with a plate containing test compounds serially diluted in assay buffer. Cells were stimulated with test compounds (online injection) and the agonist activity was determined as an increase in intracellular calcium concentration measured from the ratio of fluorescence emission at 542 nm by excitation at 480 nm. The agonist response for each applied concentration was assessed as the ratio: maximum fluorescence/average pre-stimulated fluorescence and was normalized to responses from assay buffer alone (0% response) and 10 μM Danavorexton (100% response). EC50 and Emax values were calculated from concentration-response curves by using Genedata Screener software.

Where [1] appears, read: normalized to assay buffer (0%) and 10 μM Danavorexton (100%).

pEC50: −log10 of the molar value.

For `C[C@@H]1Oc2c(F)cccc2-c2cc(ccc2F)C[C@@]2(CC[C@H](NS(C)(=O)=O)C2)c2nc1co2` [Example 3, N-[(1′S,9S,14R)-6,19-difluoro-9-methyl-spiro[8,12-dioxa-21-azatetracyclo[14.3.1.110,13.02,7]henicosa-1(19),2(7),3,5,10,13(21),16(20),17-octaene-14,3′-cyclopentane]-1′-yl]methanesulfonamide], the negative logarithm of the EC50 (pEC50) (commonly the EC50 on a negative log10 scale, so that one unit is a factor of ten) was 9.01. Moreover, under setting [1], the Emax – broadly, the maximal effect, on the per cent scale that the assay sets – was 99%.
As for `CS(=O)(=O)N[C@H]1CC[C@@]2(COCCCc3cccc(c3)OCc3coc2n3)C1` [Example 67, N-[(1S,8S)-spiro[2,6,10-trioxa-19-azatricyclo[12.3.1.14,7]nonadeca-1(18),4,7(19),14,16-pentaene-8,3′-cyclopentane]-1′-yl]methanesulfonamide], the pEC50 is 5.92. Further, the Emax under setting [1] was 94%.
Turning to `CS(=O)(=O)N[C@H]1CC[C@@]2(Cc3cc(c(F)cc3F)-c3cccc(F)c3OCc3cc(=O)[nH]c2n3)C1` [Example 101, N-[(1′S,15R)-6,18,20-trifluoro-12-oxo-spiro[8-oxa-13,22-diazatetracyclo[15.3.1.110,14.02,7]docosa-1(20),2(7),3,5,10,14(22),17(21),18-octaene-15,3′-cyclopentane]-1′-yl]methanesulfonamide], the pEC50 is 9.17. Also, the Emax under setting [1] came out at 96%.
As for `CS(=O)(=O)N[C@H]1CC[C@@]2(Cc3cccc(c3)-c3cccc(n3)OCCc3coc2n3)C1` [Example 4, N-[(1′S,8R)-spiro[10,15-dioxa-20,21-diazatetracyclo[14.3.1.12,6.19,12]docosa-1(19),2(22),3,5,9(21),11,16(20),17-octaene-8,3′-cyclopentane]-1′-yl]methanesulfonamide], the pEC50 was 6.48. Also, the Emax under setting [1] came out at 100%.
For `CS(=O)(=O)N[C@H]1CC[C@@]2(Cc3cccc(n3)-c3ccccc3OCc3coc2n3)C1` [Example 80, N-[(1′S,14S)-spiro[8,12-dioxa-20,21-diazatetracyclo[14.3.1.110,13.02,7]henicosa-1(20),2,4,6,10,13(21),16,18-octaene-14,3′-cyclopentane]-1′-yl]methanesulfonamide] the same measures were 5.00 and 66%.
On to `CS(=O)(=O)N[C@@H]1CC[C@]2(Cc3cc(c(F)cc3F)-c3cccc(F)c3OCc3coc2n3)C1` [Example 107, N-[(1′R,14S)-6,17,19-trifluorospiro[8,12-dioxa-21-azatetracyclo[14.3.1.110,13.02,7]henicosa-1(19),2,4,6,10,13(21),16(20),17-octaene-14,3′-cyclopentane]-1′-yl]methanesulfonamide], for which the pEC50 was 8.59. Further, under setting [1], the Emax is 100%.
Regarding `CC1Oc2ccccc2-c2cccc(c2)C[C@@]2(CC[C@H](NS(C)(=O)=O)C2)c2nccc1n2` (single isomer, unassigned) [Example 88, N-[(1′S,9R*,15R)-9-methylspiro[8-oxa-13,22-diazatetracyclo[15.3.1.110,14.02,7]docosa-1(21),2,4,6,10,12,14(22),17,19-nonaene-15,3′-cyclopentane]-1′-yl]methanesulfonamide], the pEC50 is 5.80. In addition, the Emax under setting [1] worked out at 88%.
With `O=S(=O)(N[C@H]1CC[C@@]2(Cc3cccc(c3)-c3cccc(F)c3OCc3coc2n3)C1)C1CCOC1` (stereo partly drawn) [Example 79, N-[(1′S,14R)-6-fluorospiro[8,12-dioxa-21-azatetracyclo[14.3.1.110,13.02,7]henicosa-1(19),2,4,6,10,13(21),16(20),17-octaene-14,3′-cyclopentane]-1′-yl]tetrahydrofuran-3-sulfonamide], the negative logarithm of the EC50 (pEC50) was 7.70. The Emax under setting [1] amounted to 100%.
As for `CS(=O)(=O)N[C@@H]1C[C@]2(Cc3ccc(F)c(c3)-c3cccc(F)c3OCc3ccnc2n3)[C@H]2C[C@@H]12` [Example 118, N-[(1′R,2′R,5′S,15R)-6,20-difluorospiro[8-oxa-13,22-diazatetracyclo[15.3.1.110,14.02,7]docosa-1(21),2,4,6,10,12,14(22),17,19-nonaene-15,4′-bicyclo[3.1.0]hexane]-2′-yl]methanesulfonamide], the pEC50 is 10.00. The Emax under setting [1] was found to be 100%.
With `C[C@@H]1C[C@@H](NS(C)(=O)=O)C[C@@]12Cc1ccc(F)c(c1)-c1ccccc1OCc1coc2n1` [Example 62, N-[(1′R,4′R,14S)-19-fluoro-4′-methyl-spiro[8,12-dioxa-21-azatetracyclo[14.3.1.110,13.02,7]henicosa-1(19),2,4,6,10,13(21),16(20),17-octaene-14,3′-cyclopentane]-1′-yl]methanesulfonamide or N-[(1′S,4′S,14R)-19-fluoro-4′-methyl-spiro[8,12-dioxa-21-azatetracyclo[14.3.1.110,13.02,7]henicosa-1(19),2,4,6,10,13(21),16(20),17-octaene-14,3′-cyclopentane]-1′-yl]methanesulfonamide], the pEC50 was 6.80. Besides, the “Emax (%)” value under setting [1] turned out to be 100%.
For `CS(=O)(=O)N[C@H]1CC[C@@]2(Cc3ccc(Cl)c(c3)-c3ccc(F)c(F)c3OCc3coc2n3)C1` [Example 31, N-[(1′S,14R)-19-chloro-5,6-difluoro-spiro[8,12-dioxa-21-azatetracyclo[14.3.1.110,13.02,7]henicosa-1(19),2,4,6,10,13(21),16(20),17-octaene-14,3′-cyclopentane]-1′-yl]methanesulfonamide], the negative logarithm of the EC50 (pEC50) was 9.32. Moreover, under setting [1], the Emax stood at 96%.
As to `CS(=O)(=O)N[C@@H]1CC[C@]2(Cc3ccc(F)c(c3)-c3cccc(F)c3OCc3coc2n3)C1` [Example 99, N-[(1′R,14S)-6,19-difluorospiro[8,12-dioxa-21-azatetracyclo[14.3.1.110,13.02,7]henicosa-1(19),2,4,6,10,13(21),16(20),17-octaene-14,3′-cyclopentane]-1′-yl]methanesulfonamide], the pEC50 is 8.48. Besides, the Emax under setting [1] was found to be 96%.
Take `CS(=O)(=O)N[C@H]1CC[C@@]2(Cc3cccc(c3)-c3ccccc3OCc3coc2n3)C1` [Example 38, N-[(1′S,14R)-spiro[8,12-dioxa-21-azatetracyclo[14.3.1.110,13.02,7]henicosa-1(20),2,4,6,10,13(21),16,18-octaene-14,3′-cyclopentane]-1′-yl]methanesulfonamide]: the pEC50 is 8.37. Under setting [1], the Emax came out at 99%.
As to `CS(=O)(=O)N[C@H]1CC[C@@]2(Cc3ccc(F)c(c3)-c3cc(F)cc(F)c3OCc3ccnc2n3)C1` [Example 91, N-[(1′S,15R)-4,6,20-trifluorospiro[8-oxa-13,22-diazatetracyclo[15.3.1.110,14.02,7]docosa-1(20),2,4,6,10,12,14(22),17(21),18-nonaene-15,3′-cyclopentane]-1′-yl]methanesulfonamide], the negative-log EC50 (pEC50) was 9.49. For the same compound, the Emax under setting [1] is 100%.
For `CS(=O)(=O)N[C@H]1CC[C@@]2(CO[C@H]3CC[C@H](CC3)c3cccc(c3)OCc3coc2n3)C1` [Example 41, N-[(1s,1′S,13S,16s)-spiro[7,11,15-trioxa-21-azatetracyclo[14.2.2.12,6.19,12]docosa-2,4,6(22),9,12(21)-pentaene-13,3′-cyclopentane]-1′-yl]methanesulfonamide] the same measures were 9.72 and 98%.
